US4517296A, “Antibiotic acmimycin and its production” (Toyo Jozo Kabushiki Kaisha, priority 1982, dated 1985)
In brackets after ≈: the same amount, converted by molar mass.

Key:
[1] = system: Staph. epidermidis sp-al-1; test: MIC by agar dilution method, Staph. epidermidis sp-al-1; type: cell-based; conditions: Staphylococcus epidermidis, SPAL1, read-out: minimum inhibitory concentration (MIC)
Enterobac. cloacae GN336 = test: MIC by agar dilution method, Enterobac. cloacae GN336; type: cell-based; conditions: read-out: minimum inhibitory concentration (MIC)
[2] = system: Bacillus subtilis ATCC6633; test: MIC by agar dilution method, Bacillus subtilis ATCC6633; type: cell-based; conditions: read-out: minimum inhibitory concentration (MIC)
E. coli W3630RGN14 = test: MIC by agar dilution method, E. coli W3630RGN14; type: cell-based; conditions: Escherichia coli, W3630RGN14, read-out: minimum inhibitory concentration (MIC)
Staph. aureus MS27 = test: MIC by agar dilution method, Staph. aureus MS27; type: cell-based; conditions: Staphylococcus aureus, read-out: minimum inhibitory concentration (MIC)
Serratia marcescens = test: MIC by agar dilution method, Serratia marcescens; type: cell-based; conditions: read-out: minimum inhibitory concentration (MIC)
Proteus morganii 0239 = test: MIC by agar dilution method, Proteus morganii 0239; type: cell-based; conditions: Morganella morganii, read-out: minimum inhibitory concentration (MIC)
E. coli W3630 = test: MIC by agar dilution method, E. coli W3630; type: cell-based; conditions: Escherichia coli, read-out: minimum inhibitory concentration (MIC)
Staph. aureus ATCC6538P = test: MIC by agar dilution method, Staph. aureus ATCC6538P; type: cell-based; conditions: Staphylococcus aureus, read-out: minimum inhibitory concentration (MIC)
Strept. pyogenes N.Y. 5 = test: MIC by agar dilution method, Strept. pyogenes N.Y. 5; type: cell-based; conditions: Streptococcus pyogenes, read-out: minimum inhibitory concentration (MIC)
Solubility = type: physicochemical
[3] = system: Kleb. pneumoniae ATCC10031; test: MIC by agar dilution method, Kleb. pneumoniae ATCC10031; type: cell-based; conditions: Klebsiella pneumoniae, read-out: minimum inhibitory concentration (MIC)
[4] = system: Pseudo. aeruginosa IAM1095; test: MIC by agar dilution method, Pseudo. aeruginosa IAM1095; type: cell-based; conditions: Pseudomonas aeruginosa, read-out: minimum inhibitory concentration (MIC)
[5] = system: Salm. enteritidis Gaertner; test: MIC by agar dilution method, Salm. enteritidis Gaertner; type: cell-based; conditions: Salmonella enterica, read-out: minimum inhibitory concentration (MIC)
Staph. aureus 0119 = test: MIC by agar dilution method, Staph. aureus 0119; type: cell-based; conditions: Staphylococcus aureus, read-out: minimum inhibitory concentration (MIC)
[6] = system: Enterobac. aerogenes 0655; test: MIC by agar dilution method, Enterobac. aerogenes 0655; type: cell-based; conditions: read-out: minimum inhibitory concentration (MIC)
E. coli NIHJ-JC2 = test: MIC by agar dilution method, E. coli NIHJ-JC2; type: cell-based; conditions: Escherichia coli, NIHJJC2, read-out: minimum inhibitory concentration (MIC)
Proteus rettgeri ACR = test: MIC by agar dilution method, Proteus rettgeri ACR; type: cell-based; conditions: Providencia rettgeri, read-out: minimum inhibitory concentration (MIC)
Cit. freundii GN346 = test: MIC by agar dilution method, Cit. freundii GN346; type: cell-based; conditions: Citrobacter freundii, read-out: minimum inhibitory concentration (MIC)
Shigella sonnei E33 = test: MIC by agar dilution method, Shigella sonnei E33; type: cell-based; conditions: read-out: minimum inhibitory concentration (MIC)

## CNC1C(O)C(NC)C2OC3(O)C(OC)=CC(C)OC3OC2C1O (stereo not drawn) [acmimycin]
[1]
  MIC: 50 µg/mL (≈ 144 µM)
Enterobac. cloacae GN336
  MIC: 50 µg/mL (≈ 144 µM)
[2]
  MIC: 25 µg/mL (≈ 72.2 µM)
E. coli W3630RGN14
  MIC: > 100 µg/mL
Staph. aureus MS27
  MIC: 100 µg/mL (≈ 289 µM)
Serratia marcescens
  MIC: 25 µg/mL (≈ 72.2 µM)
Proteus morganii 0239
  MIC: > 100 µg/mL
E. coli W3630
  MIC: 25 µg/mL (≈ 72.2 µM)
Staph. aureus ATCC6538P
  MIC: 100 µg/mL (≈ 289 µM)
Strept. pyogenes N.Y. 5
  MIC: 3.1 µg/mL (≈ 8.95 µM)
Solubility; in acetone
  Solubility: insoluble
Solubility; in benzene
  Solubility: insoluble
Solubility; in ethyl acetate
  Solubility: insoluble
Solubility; in lower alcohols such as methanol
  Solubility: slightly soluble
Solubility; in water
  Solubility: soluble
[3]
  MIC: 12.5 µg/mL (≈ 36.1 µM)
[4]
  MIC: > 100 µg/mL
[5]
  MIC: 25 µg/mL (≈ 72.2 µM)
Staph. aureus 0119
  MIC: > 100 µg/mL
[6]
  MIC: > 100 µg/mL
E. coli NIHJ-JC2
  MIC: 50 µg/mL (≈ 144 µM)
Proteus rettgeri ACR
  MIC: 100 µg/mL (≈ 289 µM)
Cit. freundii GN346
  MIC: > 100 µg/mL
Shigella sonnei E33
  MIC: 25 µg/mL (≈ 72.2 µM)
